Our source for the EC50 values is US8877707B2, “Inhibitors of HCV NS5A” (Presidio Pharmaceuticals, Inc., priority 2010, dated 2014).

For the assay, the system named is HCV genotype 1b replicon in Huh 7 cells. The assay is described as follows: HCV replicon assay (1b_Huh-Luc/Neo-ET cell line, luciferase readout). Type of assay: cell-based. To be noted: Hepatitis C virus; Table 1; genotype 1b replicon, Huh 7 cells, 72 h, luciferase; read-out: Inhibition of HCV genotype 1b. The procedure, abridged:
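Replicon level was read as luciferase signal after 72 h compound exposure, triplicate wells, starting the day after cells were plated. Cell line: 1b_Huh-Luc/Neo-ET. Values normalised to control as percent, and EC50 fitted with a variable-slope sigmoid; determinations repeated.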

Take `COC(=O)N[C@H](C(=O)N1CCC[C@H]1c1ncc(-c2ccc3cc(-c4ccc(-c5cnc([C@@H]6COCCN6C(=O)[C@H](NC(=O)OC)c6ccccc6)[nH]5)cc4)ccc3c2)[nH]1)C1CCOCC1` [compound 169]: the EC50 is less than 1 nM.
With `COC(=O)N[C@H](C(=O)N1CCOC[C@H]1c1ncc(-c2ccc(-c3ccc4cc(-c5cnc([C@@H]6COCCN6C(=O)[C@@H](NC(=O)OC)C(C)C)[nH]5)ccc4c3)cc2)[nH]1)C(C)C` [compound 170], the EC50 was less than 1 nM.
For `CCC(CC)[C@H](NC(=O)OC)C(=O)N1CCC[C@H]1c1ncc(-c2ccc(-c3ccc4cc(-c5cnc([C@@H]6CCCN6C(=O)[C@@H](NC(=O)OC)C(CC)CC)[nH]5)ccc4c3)cc2)[nH]1` [compound 171] the value was less than 1 nM; for `COC(=O)N[C@H](C(=O)N1CCC[C@H]1c1ncc(-c2ccc(-c3ccc4cc(-c5cnc([C@@H]6CCCN6C(=O)[C@@H](NC(=O)OC)C6CCCC6)[nH]5)ccc4c3)cc2)[nH]1)C1CCCC1` [compound 172], less than 1 nM.
For `CC[C@H](NC(=O)OC)C(=O)N1CCC[C@H]1c1ncc(-c2ccc(-c3ccc4cc(-c5cnc([C@@H]6CCCN6C(=O)[C@H](CC)NC(=O)OC)[nH]5)ccc4c3)cc2)[nH]1` [compound 173] the value was less than 1 nM; for `COC(=O)N[C@H](C(=O)N1CCC[C@H]1c1ncc(-c2ccc3cc(-c4ccc5nc([C@@H]6CCCN6C(=O)[C@@H](NC(=O)OC)C(C)C)[nH]c5c4)ccc3c2)[nH]1)C(C)C` [compound 174], less than 1 nM; for `COC(=O)N[C@H](C(=O)N1CCC[C@H]1c1ncc(-c2ccc3cc(-c4ccc5nc([C@@H]6CCCN6C(=O)[C@@H](NC(=O)OC)[C@@H](C)O)[nH]c5c4)ccc3c2)[nH]1)[C@@H](C)O` [compound 175], less than 1 nM.
The same measure for `COC(=O)N[C@H](C(=O)N1CCC[C@H]1c1ncc(-c2ccc3cc(-c4ccc5nc([C@@H]6CCCN6C(=O)[C@@H](NC(=O)OC)[C@@H](C)OC)[nH]c5c4)ccc3c2)[nH]1)[C@@H](C)OC` [compound 176]: less than 1 nM; for `COC(=O)N[C@H](C(=O)N1CCC[C@H]1c1ncc(-c2ccc3cc(-c4ccc5nc([C@@H]6CCCN6C(=O)[C@@H](c6ccccc6)N(C)C)[nH]c5c4)ccc3c2)[nH]1)C(C)C` [compound 177]: less than 1 nM; for `COC(=O)N[C@H](C(=O)N1CCC[C@H]1c1nc2ccc(-c3ccc4cc(-c5cnc([C@@H]6CCCN6C(=O)[C@@H](c6ccccc6)N6CCCC6)[nH]5)ccc4c3)cc2[nH]1)C(C)C` [compound 178]: less than 1 nM.
As to `COC(=O)N[C@H](C(=O)N1CCC[C@H]1c1nc2ccc(-c3ccc4cc(-c5cnc([C@@H]6CCCN6C(=O)[C@H](NC(=O)OC)c6ccccc6)[nH]5)ccc4c3)cc2[nH]1)C(C)C` [compound 179], the EC50 was less than 1 nM.
For `COC(=O)N[C@H](C(=O)N1CCC[C@H]1c1ncc(-c2ccc3cc(-c4ccc5nc([C@@H]6CCCN6C(=O)[C@@H](c6ccccc6)N6CCCC6)[nH]c5c4)ccc3c2)[nH]1)C(C)C` [compound 180] the value was less than 1 nM; for `COC(=O)N[C@H](C(=O)N1CCC[C@H]1c1ncc(-c2ccc3cc(-c4ccc5nc([C@@H]6CCCN6C(=O)[C@H](NC(=O)OC)c6ccccc6)[nH]c5c4)ccc3c2)[nH]1)C(C)C` [compound 181], less than 1 nM.
Take `COC(=O)N[C@H](C(=O)N1CCC[C@H]1c1nc2ccc(-c3ccc4cc(-c5cnc([C@@H]6CCCN6C(=O)[C@@H](c6ccccc6)N(C)C)[nH]5)ccc4c3)cc2[nH]1)C(C)C` [compound 182]: the EC50 was less than 1 nM.
The same measure for `COC(=O)N[C@H](C(=O)N1CCC[C@H]1c1nc2ccc(-c3ccc4cc(-c5cnc([C@@H]6CCCN6C(=O)[C@H](NC(=O)N6CC[C@H](O)C6)c6ccccc6)[nH]5)ccc4c3)cc2[nH]1)C(C)C` [compound 183]: less than 1 nM.
For `COC(=O)N[C@H](C(=O)N1CCC[C@H]1c1ncc(-c2ccc3cc(-c4ccc5nc([C@@H]6CCCN6C(=O)[C@H](NC(=O)N6CC[C@H](O)C6)c6ccccc6)[nH]c5c4)ccc3c2)[nH]1)C(C)C` [compound 185] the value was less than 1 nM.
The same measure for `CNC(=O)N[C@@H](C(=O)N1CCC[C@H]1c1ncc(-c2ccc3cc(-c4ccc5nc([C@@H]6CCCN6C(=O)[C@@H](NC(=O)OC)C(C)C)[nH]c5c4)ccc3c2)[nH]1)c1ccccc1` [compound 186]: less than 1 nM; for `COC(=O)N[C@H](C(=O)N1CCC[C@H]1c1ncc(-c2cnc3cc(-c4ccc5nc([C@@H]6CCCN6C(=O)[C@@H](NC(=O)OC)C(C)C)[nH]c5c4)ccc3c2)[nH]1)C(C)C` [compound 187]: less than 1 nM; for `COC(=O)N[C@H](C(=O)N1CCC[C@H]1c1ncc(-c2cnc3cc(-c4ccc5nc([C@@H]6CCCN6C(=O)[C@H](NC(=O)OC)c6ccccc6)[nH]c5c4)ccc3c2)[nH]1)C(C)C` [compound 188]: 1 to 9.9 nM.
As for `COC(=O)N[C@H](C(=O)N1CCC[C@H]1c1ncc(-c2ccc3cc(-c4ccc5nc([C@@H]6CCCN6C(=O)[C@@H](NC(=O)OC)C6CCOCC6)[nH]c5c4)ccc3c2)[nH]1)C(C)C` [compound 189], the EC50 was less than 1 nM.
Take `COC(=O)N[C@H](C(=O)N1CCC[C@H]1c1nc2ccc(-c3ccc4cc(-c5cnc([C@@H]6CCCN6C(=O)[C@@H](NC(=O)OC)C6CCOCC6)[nH]5)ccc4c3)cc2[nH]1)C(C)C` [compound 190]: the EC50 was less than 1 nM.
For `COC(=O)N[C@H](C(=O)N1CCC[C@H]1c1nc2ccc(-c3ccc4cc(-c5cnc([C@@H]6CCCN6C(=O)[C@@H](NC(=O)OC)C6CCOCC6)[nH]5)cnc4c3)cc2[nH]1)C(C)C` [compound 191] the value was less than 1 nM; for `COC(=O)N[C@H](C(=O)N1CCC[C@H]1c1ncc(-c2cnc3cc(-c4ccc5nc([C@@H]6CCCN6C(=O)[C@@H](NC(=O)OC)C6CCOCC6)[nH]c5c4)ccc3c2)[nH]1)C(C)C` [compound 192], less than 1 nM; for `COC(=O)N[C@H](C(=O)N1CCC[C@H]1c1ncc(-c2ccc3nc(-c4ccc5nc([C@@H]6CCCN6C(=O)[C@@H](NC(=O)OC)C(C)C)[nH]c5c4)ccc3c2)[nH]1)C(C)C` [compound 193], less than 1 nM.
For `COC(=O)N[C@H](C(=O)N1CCC[C@H]1c1nc2ccc(-c3ccc4cc(-c5cnc([C@@H]6CCCN6C(=O)[C@@H](NC(=O)OC)C6CCOCC6)[nH]5)ccc4n3)cc2[nH]1)C(C)C` [compound 194] the value was less than 1 nM.
The same measure for `COC(=O)N[C@H](C(=O)N1CCC[C@H]1c1nc2ccc(-c3ccc4cc(-c5cnc([C@@H]6CCCN6C(=O)[C@H](NC(=O)OC)c6ccccc6)[nH]5)cnc4c3)cc2[nH]1)C(C)C` [compound 195]: less than 1 nM; for `COC(=O)N[C@H](C(=O)N1CCC[C@H]1c1nc2ccc(-c3ccc4cc(-c5cnc([C@@H]6CCCN6C(=O)[C@H](NC(=O)OC)c6ccccc6)[nH]5)ccc4n3)cc2[nH]1)C(C)C` [compound 196]: less than 1 nM.
As for `COC(=O)N[C@H](C(=O)N1CCC[C@H]1c1ncc(-c2ccc3nc(-c4ccc5nc([C@@H]6CCCN6C(=O)[C@H](NC(=O)OC)c6ccccc6)[nH]c5c4)ccc3c2)[nH]1)C(C)C` [compound 197], the EC50 is less than 1 nM.
For `COC(=O)N[C@H](C(=O)N1CCC[C@H]1c1ncc(-c2ccc3cc(-c4ccc5nc([C@@H]6CCCN6C(=O)[C@@H](NC(=O)OC)C(C)C)[nH]c5n4)ccc3c2)[nH]1)C(C)C` [compound 198], the EC50 was less than 1 nM.
For `COC(=O)N[C@H](C(=O)N1CCC[C@H]1c1ncc(-c2ccc3cc(-c4ccc5nc([C@@H]6CCCN6C(=O)[C@H](NC(=O)OC)c6ccccc6)[nH]c5n4)ccc3c2)[nH]1)C(C)C` [compound 199] the value was less than 1 nM; for `COC(=O)N[C@H](C(=O)N1CCC[C@H]1c1nc2ccc(-c3ccc4cc(-c5cnc([C@@H]6CCCN6C(=O)[C@H](NC(=O)OC)c6ccccc6)[nH]5)ccc4c3)nc2[nH]1)C(C)C` [compound 200], less than 1 nM.
For the molecule `COC(=O)N[C@H](C(=O)N1CCC[C@H]1c1nc2ccc(-c3ccc4cc(-c5cnc([C@@H]6CCCN6C(=O)[C@@H](NC(=O)OC)C6CCOCC6)[nH]5)ccc4c3)nc2[nH]1)C(C)C` [compound 201], the EC50 was less than 1 nM.
For `COC(=O)N[C@H](C(=O)N1CCC[C@H]1c1ncc(-c2ccc3cc(-c4ccc5nc([C@@H]6CCCN6C(=O)[C@@H](NC(=O)OC)C6CCOCC6)[nH]c5n4)ccc3c2)[nH]1)C(C)C` [compound 202] the value was less than 1 nM; for `COC(=O)N[C@H](C(=O)N1CCC[C@H]1c1ncc(-c2ccc3cc(-c4ccc5nc([C@@H]6CCCN6C(=O)[C@@H](NC(=O)OC)C6CCOCC6)[nH]c5c4)ccc3c2)[nH]1)C1CCOCC1` [compound 203], less than 1 nM.
`COC(=O)N[C@H](C(=O)N1CCC[C@H]1c1ncc(-c2ccc3cc(-c4ccc5nc([C@@H]6CCCN6C(=O)[C@@H](NC(=O)OC)C(C)C)[nH]c5c4)ncc3c2)[nH]1)C(C)C` [compound 204]: the EC50 is less than 1 nM.
For `COC(=O)N[C@H](C(=O)N1CCC[C@H]1c1ncc(-c2ccc3cc(-c4ccc5nc([C@@H]6CCCN6C(=O)[C@@H](NC(=O)OC)C6CCOCC6)[nH]c5n4)ccc3c2)[nH]1)C1CCOCC1` [compound 205] the value was less than 1 nM.
Regarding `COC(=O)N[C@H](C(=O)N1CCC[C@H]1c1ncc(-c2ccc3nc(-c4ccc5nc([C@@H]6CCCN6C(=O)[C@@H](NC(=O)OC)C6CCOCC6)[nH]c5c4)ccc3c2)[nH]1)C1CCOCC1` [compound 206], the EC50 was 1 to 9.9 nM.
The same measure for `COC(=O)N[C@H](C(=O)N1CCC[C@H]1c1ncc(-c2cccc3c(-c4ccc5nc([C@@H]6CCCN6C(=O)[C@@H](NC(=O)OC)C(C)C)[nH]c5c4)cccc23)[nH]1)C(C)C` [compound 207]: less than 1 nM.
In the case of `COC(=O)N[C@H](C(=O)N1CCC[C@H]1c1nc2ccc(-c3cccc4c(-c5cnc([C@@H]6CCCN6C(=O)[C@H](NC(=O)OC)c6ccccc6)[nH]5)cccc34)cc2[nH]1)C(C)C` [compound 208], the EC50 is less than 1 nM.
The same measure for `COC(=O)N[C@H](C(=O)N1CCC[C@H]1c1ncc(-c2ccc3cc(-c4ccc5nc([C@@H]6CCCN6C(=O)[C@@H](NC(=O)OC)C(C)C)[nH]c5c4)ccc3n2)[nH]1)C(C)C` [compound 209]: less than 1 nM.
